# System: 4Ig-domain of DCC
# Test: AP binding assay on coated DCC-4Ig
# Conditions: closest Neogenin homologue, specificity control
# Experimental: (A) Different RGMa-AP proteins were incubated on wells coated with the 4Ig 6FNIII or BSA. […] Data were average±SEM (n=3 independent experiments), *p<0.005. (B) Quantification of a binding assay where 4Ig-AP and 6FNIII-AP proteins were assayed on wells coated with proteins from different RGMa regions. […] Thus, two N-RGMa fragments were identified (N-Raft and N-RGMa77-113) that bound the 4Ig and 6FNIII domains in Neogenin, respectively. C-RGMa proteins and full length RGMa only bound 6FNIII. Data were average±SEM (n=3 independent experiments), *p<0.005. […] Quantification of a binding assay where N-RGMa-AP was assayed on wells coated with proteins DCC-4Ig and Neogenin-4Ig. In this experiment Neogenin-4Ig but not DCC-4Ig interacted with N-Raft-AP. Data were average±SEM (n=4 independent experiments), *p<0.005. (D) Cis-interaction between the 4Ig domain of Neogenin and N-Raft is required for localization of Neogenin in lipid rafts. HEK-293 cells were transfected with Neogenin and RGMa constructs. BMP2 (100 nM) was added to the medium 1 hour before cells were collected. Western blotting was performed following lipid raft fractionation. Flotillin was used as a marker for lipid raft fractions, whereas the transferrin receptor (TfR) was used as a marker for heavy membrane-fractions. Every experiment was repeated twice. […]
substance,measurement,value
N-Raft: peptide spanning amino acids 28-73 of RGMa (SEQ ID NO:2) (SPCKILKCNSEFWAATSGSHHLGAEETPEFCTALRAYAHCTRRTAR; N-Raft - amino acids 28-73 of RGMa),interaction with the 4Ig-domain of DCC,No significant interaction
